Assay: gradient 5% acetonitrile 3 min, to 50% in 2 min, to 85% in 15 min, held 3 min, 100 µL/min
Conditions: column: Zorbax Extend-C18 2.1 x 50 mm; eluents: water / acetonitrile, 0.1% formic acid
Outline: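 Retention times come from adduct peaks that were picked computationally and then checked by hand. The standards, pure and pooled in mixtures of ~100 molecules, were run on a Zorbax Extend-C18 column (2.1 × 50 mm, 1.8 μm) at 100 μL/min with water and acetonitrile, each with 0.1% formic acid. Detection was by quadrupole time-of-flight mass spectrometry in positive and negative ionization mode, with a dead volume of 40 μL and a dwell volume of 900 μL.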

SMILES	RP-LC retention time
Cc1ccc(-c2nc(C)c3c(n2)N(Cc2ccccn2)C(=O)CC3)cc1	771 s
O=C(c1cccs1)N1CCC(Nc2ncnc3c2CCC3)C1 (centres undefined)	547 s
O=C(c1ccc(N2CCCCC2)c(S(=O)(=O)N2CCCCC2)c1)N1CCN(c2ccccn2)CC1	813 s
O=C(Cc1ccccc1Cl)N1CCc2cc(-c3ccno3)ccc21	1020 s
O=C(c1cn(-c2cc(N3CCCCC3)ncn2)cn1)N1CCc2ccccc2C1	973 s
Cc1ccc(Cn2c(=O)n(CCNC(=O)C(C)C)c3ncccc32)cc1	769 s
CCc1cnc2c(c1OC)c(=O)n(Cc1ccccc1F)c(=O)n2C	970 s
CCN(CC)C(=O)c1ccccc1NC(=O)c1ccc2c(c1)-c1ccccc1S(=O)(=O)N2CC	992 s
O=C(Cc1ccc(Br)cc1)NC1CCN(c2cc(-c3ccc(F)cc3)[nH]n2)C1 (centres undefined)	780 s
O=C(NCc1cc(F)cc(F)c1)c1c(O)c2cccnc2n(-c2cccc(F)c2)c1=O	1200 s
CCc1noc(NC(C)=O)c1-c1ccc(OC)c(S(=O)(=O)Nc2ccccc2F)c1	763 s
NS(=O)(=O)c1cccnc1Nc1ccc(Cl)cc1	863 s
O=C(CCc1cc(Cl)no1)N1CCC(c2nc(C3CCOCC3)no2)C1 (centres undefined)	701 s
O=C(Nc1ccccc1Cl)N(Cc1ccsc1)Cc1ccccn1	806 s
Cc1ccc(Nc2c(-c3cccc([N+](=O)[O-])c3)nc3cc(C)ccn23)cc1	794 s
CN(C)CCCNC(=O)C1CCN(c2nc3ccc(-c4cccs4)nc3s2)CC1	647 s
COC(=O)c1ccc(OC)c(Cn2cnc3c(-c4ccc(C)cc4)csc3c2=O)c1	1070 s
Cc1sc(-c2cc(C(F)(F)F)on2)cc1S(=O)(=O)Nc1ccccc1F	1110 s
Cc1ccc2c(c1)N(C)N=C(C(=O)N1CCCCCC1)S2(=O)=O	839 s
Cn1cc(CCNS(=O)(=O)c2ccc(F)cc2Cl)c2cccnc21	755 s
COc1ccc(C2C(C(=O)N3CC(C)CC(C)C3)CCC(=O)N2c2ccc(OC)cc2)cc1 (centres undefined)	871 s

SMILES	RP-LC retention time
O=C(CCc1c[nH]c2ccccc12)N1CC(n2ccnc2)C1	588 s
Cc1noc(C)c1S(=O)(=O)N1CCC(c2nnc(-c3ccco3)o2)CC1	756 s
CSc1ccc(CNC(=O)C2CCCN(c3ncc(-c4ccc(F)cc4)cn3)C2)cc1 (centres undefined)	1090 s
Cc1csc(-c2csc(S(=O)(=O)Nc3ccc(F)c(Cl)c3)c2)n1	1020 s
Nc1nc(CN2CCN(c3ccccn3)CC2)nc(Nc2ccc(Oc3ccccc3)cc2)n1	669 s
COc1cc(-c2nnc(-c3ccc(C)c(S(=O)(=O)N4CCOCC4)c3)o2)cc(OC)c1OC	891 s
COC(=O)C1=CN(c2cccc(OC)c2)c2ccccc2S1(=O)=O	776 s
O=C(N[C@H]1C[C@@H]2C[C@H]1N(C(=O)Cc1c(F)cccc1Cl)C2)c1cccnc1	695 s
CCc1ccc(N2C(=O)CN(S(C)(=O)=O)CC2(C)C(=O)NC2CCCCCCC2)cc1 (centres undefined)	1000 s
O=C(Cn1cccc1-c1nnc(-c2ccccc2)o1)NCc1cccnc1	617 s
CN1C(=O)CCc2cc(NC(=O)c3ccsc3)ccc21	691 s
Cc1ccc(C(=O)N2CCc3ccc(CNC(=O)NC(C)C)cc32)cc1	808 s
O=C(CSc1cc(-c2ccc(F)cc2)ncn1)NCc1ccc2c(c1)OCO2	825 s
COC(=O)c1ccc(Cl)cc1NC(=O)N1CCc2nc[nH]c2C1	644 s
Cn1nc(-c2nc(C3CC3)no2)c2c1CCN(C(=O)c1ccccc1F)C2	805 s
O=C(N[C@H]1C[C@@H]2C[C@H]1N(C(=O)c1ccccc1Cl)C2)c1cccnc1	602 s
Cc1ccc(-c2noc(C3CCCN3S(=O)(=O)c3cc(C)c(C)cc3C)n2)cc1 (centres undefined)	1340 s
CC(C)CNC(=O)c1cn(-c2ccc(NC(=O)C(C)C)cn2)cn1	702 s
C=CCc1ccccc1OCC(O)CNC(C)C (centres undefined)	706 s
Cc1noc(C)c1S(=O)(=O)N1CC(n2cc(C(=O)NCC3CC3)nn2)C1	757 s
C=CCN(CC=C)S(=O)(=O)c1ccc(C(=O)Nc2nnc(CSC)o2)cc1	764 s

SMILES	RP-LC retention time
CN(C)CCNC(=O)c1ccc(CS(=O)c2ccc(Cl)cc2)o1 (centres undefined)	591 s
CCn1nnc2cc(-c3noc(C4CC(=O)N(c5ccc(C)c(C)c5)C4)n3)ccc21 (centres undefined)	953 s
CC(C)NC(=O)N1CCCCCC1c1nc(C2CC2)no1 (centres undefined)	802 s
Cc1cccc(N(C)S(=O)(=O)c2ccsc2-c2nc(C)no2)c1	978 s
COCCn1cc(CCNC(=O)c2cncc(Br)c2)c2cccnc21	678 s
CCCNC(=O)C1CCN(c2cncnc2N2CCCCC2)CC1	620 s
CCOC(=O)CCNC(=O)N1CCC(N2C(=O)C3(CCCC3)C2c2scnc2C)CC1 (centres undefined)	685 s
Cc1ccc(C)c(C(=O)NCCc2nc3cccnc3n2C(C)C)c1	705 s
COc1cccc(CN2C[C@@H]3C(=O)N(CCCN4CCCC4=O)C(=O)[C@@H]3C2)c1	598 s
CCc1nc(-c2csc(S(=O)(=O)N3CCC(C(=O)NC4CCCCCC4)CC3)c2)no1	997 s
CCN1C(=O)c2cccnc2Sc2cc(CNC(=O)c3ccc(OC)c(F)c3)ccc21	763 s
CCN1C(=O)c2cccnc2Sc2cc(CNC(=O)c3ccc(NC(C)=O)cc3)ccc21	654 s
CCCn1c(CCNC(=O)c2cccc(Cl)c2)nc2cccnc21	639 s
O=C(NCCCN1CCc2ccccc2C1)c1noc2c1CCCC2	659 s
COc1cc(C(=O)NC(CC(C)C)C(=O)Nc2nc3ccccc3[nH]2)cc(OC)c1OC (centres undefined)	733 s
CC(C)CCNS(=O)(=O)c1cccc(-c2nc(-c3ccccc3)no2)c1	1230 s
COc1ccccc1-c1nc(Cn2nnc(-c3nc(-c4ccc(Cl)c(F)c4)no3)c2C)c(C)o1	1240 s
O=c1n(Cc2cccc(Cl)c2)nc2ccc(S(=O)(=O)N3CCCCCC3)cn12	1040 s
O=C(c1ccncc1)N1CCCC(OCc2nc(C3CC3)no2)C1 (centres undefined)	620 s
CCCN1CCN(C(=O)C2CCN(S(=O)(=O)c3cc(-c4noc(CC)n4)sc3C)CC2)CC1	666 s

Now from value to molecule:

RP-LC retention time	SMILES
731 s	COc1cccc(NC(=O)N2CCN(Cc3nc4cc(Cl)ccc4o3)CC2)c1
1050 s	COc1cccc(S(=O)(=O)N2CCc3nc(-c4ccccc4)ncc3C2)c1
903 s	CCC1Oc2ccc(S(=O)(=O)N3CCC(C(=O)Nc4ccc(C)cc4)CC3)cc2NC1=O (centres undefined)
651 s	Cc1nn(CC(=O)NCC2CCCO2)c(=O)c2nn(-c3ccccc3)c(C)c12 (centres undefined)
849 s	Cc1ccc(Cn2nc3c(S(=O)(=O)N4CCOCC4)cccn3c2=O)c(C)c1
648 s	O=C(C1CCN(c2cnn(Cc3ccccc3)c(=O)c2)CC1)N1CCSCC1
707 s	CSc1ccccc1NC(=O)C(C)Cn1nc(-c2ccco2)ccc1=O (centres undefined)
900 s	CC1CCCCN1S(=O)(=O)c1ccc2c(c1)CCC(=O)N2CC(=O)NCCc1ccccc1 (centres undefined)
891 s	Cc1ccc(C(=O)N2CCN(c3ccc(=O)n(-c4cccc(Cl)c4)n3)CC2)s1
1060 s	Cc1cc(C)cc(NC(=O)Cn2cccc(-c3nc(-c4ccc(Br)cc4)no3)c2=O)c1
592 s	CC1CCc2nn(CC(=O)NCCCN(Cc3ccccc3)C(C)C)cc2C1 (centres undefined)
628 s	Cc1cc(=O)n(CC(=O)Nc2ccccc2)c(N2CCOCC2)n1
604 s	COc1ccc(NC(=O)NCCn2c(C)nc3ccccc32)c(OC)c1
840 s	CSc1cccc(NC(=O)Cn2c(N3CCc4ccccc4C3)nc(C)cc2=O)c1
863 s	Cc1ccccc1Oc1nccn2c(=O)n(CC(=O)Nc3ccccc3Cl)nc12
600 s	COc1ccc(S(=O)(=O)NCCCCN2CCOC(c3ccccc3)C2)c(C)c1 (centres undefined)
817 s	Cc1nn2c(CNS(=O)(=O)c3ccc4c(c3)OCCO4)c(-c3ccccc3)nc2s1
845 s	CCc1ccccc1NC(=O)N1CCCC1c1cc(C)no1 (centres undefined)
601 s	O=C(Nc1cccc(-c2nnc3n2CCCC3)c1)C1CC1
769 s	COc1cccc(NC(=O)C2CCN(c3c(C)n(C)c(=O)n(C)c3=O)CC2)c1
577 s	CCN1CCN(CCNC(=O)Cn2c3ccccc3c3cnn(C)c(=O)c32)CC1
828 s	CCC(C)CC(=O)N1CCCN(C2=NS(=O)(=O)C(c3ccccc3)=C2C)CC1 (centres undefined)
930 s	Cc1cccc(NC(=O)CN2C(=O)CCc3cc(S(=O)(=O)N4CCCCC4C)ccc32)c1C (centres undefined)
623 s	COCC(=O)N1CCc2c(sc3ncnc(N4CCOCC4)c23)C1
809 s	CCCN1N=C(C(=O)N2CCOCC2)S(=O)(=O)c2ccc(Cl)cc21
766 s	CN1C(=O)CO[C@@H](C(=O)Nc2ccc(F)cc2F)[C@@H]1c1ccccc1
586 s	O=C(Cn1c(=O)n(-c2ccccc2)c2ncccc21)NCCCN1CCCC1

Reference: the METLIN SMRT retention time set (Domingo-Almenara et al. 2019)
